Measurements taken from patent publication US20020061888A1, “Combination therapy for the prophylaxis and treatment of hyperlipidemic conditions and disorders” (priority 2000, published 2002).
“And” between values parts separate entries of the source, which are not always exact repeats. Identical values can stand only once.

Columns and labels:
Male beagle dogs [1] = test: Body or fecal weights, stool consistency, general animal health of treated beagle dogs; assay type: in vivo; settings: Example 3 study (pravastatin 3-30 mg/kg/day, compound A-5 4.0 mg/kg/day, combination), any of the groups
Procedure: (§1) Male beagle dogs (9-10 kg) obtained from Marshall farms were fed a normal chow diet once a day for a two hour interval and given water ad libitum. Prior to initiating treatment, the dogs were weighed and blood samples were drawn from the cephalic vein of each dog following an overnight fast to evaluate pretreatment serum total cholesterol levels at the start of the study. […] All doses were administered in gelatin capsules per os to each dog between 9:00-9:30 a.m. prior to feeding. All animals were fed between 9:30-10:00 a.m. and were allowed two hours to eat, at which time any remaining food was removed. […] Animals were dosed daily for three weeks and blood samples were taken at the end of each week after an overnight fast for comparison with pretreatment serum total cholesterol levels. Three consecutive 24 hour fecal samples were collected for each group during the last 72 hours of each week and used to measure the concentration of fecal biles acids excreted during that time period.
Following this initial four week dose-ranging study, dogs from the two groups receiving 10 mg/kg/day pravastatin (a.m. and p.m. dosing groups) were randomized into two new treatment groups based on serum total cholesterol levels to initiate the combination treatment study. […] Dosing continued in this manner for an additional four weeks (Weeks 5-8) with blood and 48-hour fecal samples collected at the end of each week for serum lipid measurements and fecal bile acid determinations, respectively. […] At the end of this three-week period, pravastatin dosing and all empty capsule dosing were discontinued and blood samples were collected weekly for a final three weeks (weeks 12-14) to monitor the return of serum total cholesterol levels back to baseline.
Male beagle dogs (9-10 kg) obtained from Marshall farms were fed once a day for two hours and given water ad libitum.

Male beagle dogs [2] = test: Serum total cholesterol in beagle dogs (serum lipid measurements); assay type: in vivo; settings: for SERUM TOTAL CHOLESTEROL / TOTAL SERUM CHOLESTEROL: n = 6; for decrease in serum total cholesterol concentration: compared to vehicle; for decrease in serum total cholesterol: after four weeks, vs pretreatment
Procedure: as §1
Blood was collected from the cephalic vein of each dog into serum separator tubes. The blood was centrifuged at 900×g for 20 minutes at room temperature and the serum decanted. All analyses were performed on a Cobas Mira Clinical Analyzer System (Roche Diagnostic Systems, Branchburg, N.J.) using Roche Diagnostic reagents for enzymatic determinations of serum cholesterol. Commercial calibrator and quality control materials were analyzed with each run to verify assay accuracy and precision. A two-tailed, paired Students t-test was used to determine the statistical significance of changes in serum total cholesterol in treated dogs compared to pretreatment values. A one-way analysis of variance (“ANOVA”) was used to compare each pair of treatment groups to determine the statistical significance of changes in serum total cholesterol.
Beagle dogs also were administered pravastatin to evaluate the monotherapeutic effect of pravastatin on serum total cholesterol.
Male beagle dogs (9-10 kg) obtained from Marshall farms were fed once a day for two hours and given water ad libitum. Prior to initiating treatment, blood samples were drawn from the cephalic vein of each dog to evaluate pretreatment total serum cholesterol levels at the start of the study.
For the dose ranging study, the dogs were assigned to one of five groups based on mean body weights and serum total cholesterol levels. Each group received one of the following dosages: (1) vehicle (empty capsule, afternoon dosing), (2) 3.0 mg/kg/day pravastatin (afternoon dosing), (3) 10 mg/kg/day pravastatin (afternoon dosing), (4) 30 mg/kg/day pravastatin (afternoon dosing), and (5) 10 mg/kg/day pravastatin (morning dosing). One capsule containing pravastatin was administered per os to each dog between 9:00-9:30 a.m. prior to feeding for the 10 mg/kg/day morning dosing group and between 2:30-3:00 p.m. for the afternoon dosing groups. All animals were fed between 9:30-10:00 a.m. and were allowed two hours to eat, at which time any remaining food was removed. […] Animals were dosed daily for four weeks and blood samples were taken at the end of each week after an overnight fast for comparison with pretreatment serum total cholesterol levels.
Following this initial four week dose-ranging study, dogs from the two groups receiving 10 mg/kg/day pravastatin (a.m. and p.m. dosing groups) were randomized into two new treatment groups based on serum total cholesterol levels to initiate the combination treatment study. […] Dosing continued in this manner for an additional four weeks (Weeks 5-8) with blood and 48-hour fecal samples collected at the end of each week for serum lipid measurements and fecal bile acid determinations, respectively.

`CC[C@H](C)C(=O)O[C@H]1C[C@H](O)C=C2C=C[C@H](C)[C@H](CC[C@@H](O)C[C@@H](O)CC(=O)O)[C@H]21` [pravastatin, Pravastatin] was tested, and the “changes in body or fecal weights, stool consistency or general animal health” value (Male beagle dogs [1]) was “no significant changes”, the “% change in serum total cholesterol compared to the pretreatment value of each group” value (“% change in serum total cholesterol” below) (Male beagle dogs [2]; pravastatin 0.25 mg/kg/day, Week 1) was “(+2) %” and the “SERUM TOTAL CHOLESTEROL” value (Male beagle dogs [2]; pravastatin 0.25 mg/kg/day, Week 1, mean ± SEM) was 157 ± 10 mg/dL. For the same compound, the “% change in serum total cholesterol” value (Male beagle dogs [2]; pravastatin 0.25 mg/kg/day, Week 2) was “(+3) %”, the “SERUM TOTAL CHOLESTEROL” value (Male beagle dogs [2]; pravastatin 0.25 mg/kg/day, Week 2, mean ± SEM) was 159 ± 12 mg/dL and the “% change in serum total cholesterol” value (Male beagle dogs [2]; pravastatin 0.25 mg/kg/day, Week 3) was “(0) %”. The “SERUM TOTAL CHOLESTEROL” value (Male beagle dogs [2]; pravastatin 0.25 mg/kg/day, Week 3, mean ± SEM) was 154 ± 13 mg/dL, the “decrease in serum total cholesterol concentration” value (Male beagle dogs [2]; pravastatin 0.25 mg/kg/day, one week of treatment) was 2% and the “decrease in serum total cholesterol concentration” value (Male beagle dogs [2]; pravastatin 0.25 mg/kg/day, three weeks of treatment) was 0%. The “% change in serum total cholesterol” value (Male beagle dogs [2]; pravastatin 1.0 mg/kg/day, Week 1) was “(−1) %”, the “SERUM TOTAL CHOLESTEROL” value (Male beagle dogs [2]; pravastatin 1.0 mg/kg/day, Week 1, mean ± SEM) was 153 ± 11 mg/dL and the “% change in serum total cholesterol” value (Male beagle dogs [2]; pravastatin 1.0 mg/kg/day, Week 2) was “(−4) %”. For the same compound, the “SERUM TOTAL CHOLESTEROL” value (Male beagle dogs [2]; pravastatin 1.0 mg/kg/day, Week 2, mean ± SEM) was 149 ± 11^2 mg/dL, the “% change in serum total cholesterol” value (Male beagle dogs [2]; pravastatin 1.0 mg/kg/day, Week 3) was “(−8) %” and the “SERUM TOTAL CHOLESTEROL” value (Male beagle dogs [2]; pravastatin 1.0 mg/kg/day, Week 3, mean ± SEM) was 143 ± 10^2 mg/dL. The “decrease in serum total cholesterol concentration” value (Male beagle dogs [2]; pravastatin 1.0 mg/kg/day, one week of treatment) was 1%, the “decrease in serum total cholesterol concentration” value (Male beagle dogs [2]; pravastatin 1.0 mg/kg/day, three weeks of treatment) was 8% and the “% change in serum total cholesterol” value (Male beagle dogs [2]; pravastatin 3.0 mg/kg/day pm dosing, Week 1) was “(−1) %”. For the same compound, the “TOTAL SERUM CHOLESTEROL” value (Male beagle dogs [2]; pravastatin 3.0 mg/kg/day pm dosing, Week 1, mean ± SEM) was 157 ± 16 mg/dL, the “% change in serum total cholesterol” value (Male beagle dogs [2]; pravastatin 3.0 mg/kg/day pm dosing, Week 2) was “(−16) %” and the “TOTAL SERUM CHOLESTEROL” value (Male beagle dogs [2]; pravastatin 3.0 mg/kg/day pm dosing, Week 2, mean ± SEM) was 133 ± 11^3 mg/dL. The “% change in serum total cholesterol” value (Male beagle dogs [2]; pravastatin 3.0 mg/kg/day pm dosing, Week 3) was “(−11) %”, the “TOTAL SERUM CHOLESTEROL” value (Male beagle dogs [2]; pravastatin 3.0 mg/kg/day pm dosing, Week 3, mean ± SEM) was 140 ± 12^3 mg/dL and the “% change in serum total cholesterol” value (Male beagle dogs [2]; pravastatin 3.0 mg/kg/day pm dosing, Week 4) was “(−16) %”. For the same compound, the “TOTAL SERUM CHOLESTEROL” value (Male beagle dogs [2]; pravastatin 3.0 mg/kg/day pm dosing, Week 4, mean ± SEM) was 132 ± 10^3 mg/dL, the “lowering of serum total cholesterol” value (Male beagle dogs [2]; pravastatin 3 mg/kg/day, four week dose ranging study) was 16% and the “% change in serum total cholesterol” value (Male beagle dogs [2]; pravastatin 4.0 mg/kg/day, Week 1) was “(−6) %”. For the same compound, the “SERUM TOTAL CHOLESTEROL” value (Male beagle dogs [2]; pravastatin 4.0 mg/kg/day, Week 1, mean ± SEM) was 148 ± 10^2 mg/dL, the “% change in serum total cholesterol” value (Male beagle dogs [2]; pravastatin 4.0 mg/kg/day, Week 2) was “(−7) %” and the “SERUM TOTAL CHOLESTEROL” value (Male beagle dogs [2]; pravastatin 4.0 mg/kg/day, Week 2, mean ± SEM) was 146 ± 8 mg/dL. The “% change in serum total cholesterol” value (Male beagle dogs [2]; pravastatin 4.0 mg/kg/day, Week 3) was “(−11) %”, the “SERUM TOTAL CHOLESTEROL” value (Male beagle dogs [2]; pravastatin 4.0 mg/kg/day, Week 3, mean ± SEM) was 139 ± 9^2 mg/dL and the “decrease in serum total cholesterol concentration” value (Male beagle dogs [2]; pravastatin 4.0 mg/kg/day, one week of treatment) was 6%. The “decrease in serum total cholesterol concentration” value (Male beagle dogs [2]; pravastatin 4.0 mg/kg/day, three weeks of treatment) was 11%, the “decrease in serum total cholesterol” value (Male beagle dogs [2]; pravastatin 10 mg/kg/day a.m. dosing) was 16% and the “% change in serum total cholesterol” value (Male beagle dogs [2]; pravastatin 10.0 mg/kg/day am dosing, Week 1) was “(+6) %”. The “TOTAL SERUM CHOLESTEROL” value (Male beagle dogs [2]; pravastatin 10.0 mg/kg/day am dosing, Week 1, mean ± SEM) was 164 ± 12 mg/dL, the “% change in serum total cholesterol” value (Male beagle dogs [2]; pravastatin 10.0 mg/kg/day am dosing, Week 2) was “(−13) %” and the “TOTAL SERUM CHOLESTEROL” value (Male beagle dogs [2]; pravastatin 10.0 mg/kg/day am dosing, Week 2, mean ± SEM) was 135 ± 15^3 mg/dL. For the same compound, the “% change in serum total cholesterol” value (Male beagle dogs [2]; pravastatin 10.0 mg/kg/day am dosing, Week 3) was “(−15) %”, the “TOTAL SERUM CHOLESTEROL” value (Male beagle dogs [2]; pravastatin 10.0 mg/kg/day am dosing, Week 3, mean ± SEM) was 131 ± 10^3 mg/dL and the “% change in serum total cholesterol” value (Male beagle dogs [2]; pravastatin 10.0 mg/kg/day am dosing, Week 4) was “(−16) %”. For the same compound, the “TOTAL SERUM CHOLESTEROL” value (Male beagle dogs [2]; pravastatin 10.0 mg/kg/day am dosing, Week 4, mean ± SEM) was 130 ±7 mg/dL and 130 ± 7^3 mg/dL, the “decrease in serum total cholesterol” value (Male beagle dogs [2]; pravastatin 10 mg/kg/day p.m. dosing) was 21% and the “% change in serum total cholesterol” value (Male beagle dogs [2]; pravastatin 10.0 mg/kg/day pm dosing, Week 1) was “(−8) %”. The “TOTAL SERUM CHOLESTEROL” value (Male beagle dogs [2]; pravastatin 10.0 mg/kg/day pm dosing, Week 1, mean ± SEM) was 146 ± 10 mg/dL, the “% change in serum total cholesterol” value (Male beagle dogs [2]; pravastatin 10.0 mg/kg/day pm dosing, Week 2) was “(−19) %” and the “TOTAL SERUM CHOLESTEROL” value (Male beagle dogs [2]; pravastatin 10.0 mg/kg/day pm dosing, Week 2, mean ± SEM) was 129 ± 10^3 mg/dL.
